Laboratory results from patent US10703748B2, “Diazanaphthalen-3-yl carboxamides and preparation and use thereof” (Samumed, LLC, priority 2017, dated 2020).
Like-named read-outs stand apart in the source and are kept apart here.

Columns and labels:
[1] = test system: SW480 colon carcinoma cells; test: Cell viability assay (CellTiter-Glo); settings: for inhibition at 10 µM: SW480, read-out: percent inhibition at 10 μM
[2] = test system: secreted cytokines TNFα, IL-6 and KC-GRO; test: Secreted cytokines in Lipopolysaccharide-stimulated BV-2 cells (Table 9 does not say which cytokine); format: cell-based, mouse; settings: read-out: EC50
[3] = test system: Wnt-responsive Sp5-Luc reporter in SW480 colon carcinoma cells; test: Screening assay for Wnt activity (Sp5-Luc reporter gene assay); settings: for inhibition at 10 µM: SW480, read-out: percent inhibition at 10 μM
GSK3β kinase = GSK3β kinase (Homo sapiens, UniProt P49841); test: GSK3β kinase activity (Ser/Thr 09 peptide Z-lyte FRET assay); format: biochemical; settings: recombinant kinase, 46 μM ATP, one hour at room temperature; read-out: EC50
GSK3β kinase, sequence (P49841 whole entry): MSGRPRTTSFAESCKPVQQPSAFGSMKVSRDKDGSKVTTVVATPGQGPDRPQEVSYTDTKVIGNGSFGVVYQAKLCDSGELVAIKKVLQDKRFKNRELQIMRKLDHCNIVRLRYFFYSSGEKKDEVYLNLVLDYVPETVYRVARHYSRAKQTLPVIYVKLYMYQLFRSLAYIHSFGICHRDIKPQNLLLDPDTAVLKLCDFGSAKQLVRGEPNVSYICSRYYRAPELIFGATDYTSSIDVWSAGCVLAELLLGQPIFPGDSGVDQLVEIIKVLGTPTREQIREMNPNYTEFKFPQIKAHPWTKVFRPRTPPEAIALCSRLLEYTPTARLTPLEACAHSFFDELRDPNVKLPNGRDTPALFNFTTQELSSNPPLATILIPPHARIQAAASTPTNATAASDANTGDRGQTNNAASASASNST

IL-6 = IL-6 inhibition in LPS-stimulated human peripheral blood mononuclear cells (HTRF); settings: Homo sapiens, PBMC; for EC50: 22 h; for inhibition at 10 µM: read-out: percentage in parentheses after EC50 >10
DYRK1A kinase = DYRK1A kinase (Homo sapiens, UniProt Q13627); test: DYRK1A kinase activity (Ser/Thr 18 peptide Z-lyte FRET assay); format: biochemical; settings: recombinant DYRK1A, 30 μM ATP, one hour at room temperature;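 also: kinase activity read as coumarin/fluorescein emission ratio after development step, with unphosphorylated and phosphorylated peptide forms setting 0% and 100% controls, values from dose-response curves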
[4] = test system: α-smooth muscle actin (aSMA) positive LL29 cells; test: Inhibition of the fibrotic process: αSMA staining in TGF-β1 treated LL29 fibroblasts from IPF patients; settings: for inhibition at 10 µM: read-out: percentage in parentheses after EC50 >10

| Compound | EC50 ([1]; Homo sapiens, SW480, 96 h) | inhibition at 10 µM ([1]; Homo sapiens) | EC50 ([2]; Mus musculus, BV-2, 5 h) | EC50 ([3]; Homo sapiens, SW480) | inhibition at 10 µM ([3]; Homo sapiens) | EC50 (GSK3β kinase) | EC50 (IL-6) | inhibition at 10 µM (IL-6) | EC50 (DYRK1A kinase) | EC50 ([1]; SW480 cells, four days, CellTiter-Glo) | percent inhibition at 10 μM ([1]; at 10 μM, given for EC50 of >10 μM, SW480 cell viability) | EC50 ([2]; BV-2 cells, LPS 250 ng/mL 5 hours, compounds overnight, 10 μM to […], cytokine not named in Table 9) | EC50 ([3]; SW480 Sp5-Luc reporter cells, 36 to 48 hours) | percent inhibition at 10 μM ([3]; at 10 μM, given for EC50 of >10 μM, SW480 Sp5-Luc reporter) | EC50 ([4]; LL29 fibroblasts from IPF patients, TGF-β1 20 ng/mL, 4 days, curves from 10 μM to 0.94 nM) | percentage in parentheses after EC50 >10 ([4]; LL29 fibroblasts, TGF-β1, given beside >10 μM, meaning not given) | EC50 ([4]; Homo sapiens, Fibroblast, 96 h) | inhibition at 10 µM ([4]; Homo sapiens, Fibroblast) |
| --- | --- | --- | --- | --- | --- | --- | --- | --- | --- | --- | --- | --- | --- | --- | --- | --- | --- | --- |
| O=C(Nc1cc2cc(-c3cncc(NCC4(F)CNC4)n3)cnc2cn1)C1CC1 [Compound 3591, N-(3-(6-(((3-Fluoroazetidin-3-yl)methyl)amino)pyrazin-2-yl)-1,7-naphthyridin-6-yl)cyclopropanecarboxamide] | > 10000 nM | 6.1% | 2400 nM | > 10000 nM | 1.3% | 2270 nM | > 10000 nM | 4.4% | 10 nM | – | – | – | – | – | – | – | – | – |
| CN1CCN(c2ncc(C(=O)Nc3cc4cc(-c5cnn(C)c5)ncc4cn3)s2)CC1 [Compound 4602, N-(6-(1-Methyl-1H-pyrazol-4-yl)-2,7-naphthyridin-3-yl)-2-(4-methylpiperazin-1-yl)thiazole-5-carboxamide] | – | – | – | – | – | – | – | – | – | > 10000 nM | 26.1% | 2900 nM | > 10000 nM | 10.9% | > 10000 nM | 14.3% | – | – |
| COC1CCN(CC(=O)Nc2cc3cc(-c4cn(C)nn4)cnc3cn2)CC1 [Compound 3078, 2-(4-Methoxypiperidin-1-yl)-N-(3-(1-methyl-1H-1,2,3-triazol-4-yl)-1,7-naphthyridin-6-yl)acetamide] | > 10000 nM | 16% | – | > 10000 nM | 11.7% | 760 nM | > 10000 nM | 7.9% | 207 nM | – | – | – | – | – | – | – | > 10000 nM | 41% |
| Cc1nnc(-c2cc3cc(NC(=O)CN4C5CCC4CC5)ncc3cn2)s1 [Compound 4353, 2-(7-Azabicyclo[2.2.1]heptan-7-yl)-N-(6-(5-methyl-1,3,4-thiadiazol-2-yl)-2,7-naphthyridin-3-yl)acetamide] | > 10000 nM | 4.1% | – | > 10000 nM | 2.1% | 2450 nM | > 10000 nM | 8.5% | 529 nM | – | – | – | – | – | – | – | > 10000 nM | 26.4% |
| Cc1ncc(-c2ccc3cnc(NC(=O)Cn4ccnc4)nc3c2)o1 [Compound 1495, 2-(1H-Imidazol-1-yl)-N-(7-(2-methyloxazol-5-yl)quinazolin-2-yl)acetamide] | > 10000 nM | 25.5% | – | 1510 nM | – | 254 nM | > 10000 nM | 3.2% | 113 nM | – | – | – | – | – | – | – | > 10000 nM | 48.5% |
| CN1CCN(c2cc(C(=O)Nc3cc4cc(-c5cnc(N)s5)cnc4cn3)ccn2)CC1 [Compound 3403, N-(3-(2-Aminothiazol-5-yl)-1,7-naphthyridin-6-yl)-2-(4-methylpiperazin-1-yl)isonicotinamide] | 1430 nM | – | – | 849 nM | – | > 10000 nM | > 10000 nM | 1.8% | 581 nM | – | – | – | – | – | – | – | 2430 nM | – |
| Cn1cc(-c2cc3cc(NC(=O)C(C)(C)F)ncc3cn2)nn1 [Compound 3960, 2-Fluoro-2-methyl-N-(6-(1-methyl-1H-1,2,3-triazol-4-yl)-2,7-naphthyridin-3-yl)propanamide] | > 10000 nM | 38.5% | – | > 10000 nM | 44.8% | 1500 nM | > 10000 nM | 7% | 1010 nM | – | – | – | – | – | – | – | > 10000 nM | 23.5% |
| O=C(Nc1ncc2ccc(-c3cnco3)cc2n1)C1CCN(C(=O)CN2CCCC2)CC1 [Compound 1438, N-(7-(Oxazol-5-yl)quinazolin-2-yl)-1-(2-(pyrrolidin-1-yl)acetyl)piperidine-4-carboxamide] | > 10000 nM | 14.7% | – | > 10000 nM | 10% | 5180 nM | > 10000 nM | 9.6% | 100 nM | – | – | – | – | – | – | – | > 10000 nM | 29.6% |
| Cn1cc(-c2ccc3cnc(NC(=O)c4coc(C5CCNCC5)n4)cc3n2)cn1 [Compound 241, N-(2-(1-Methyl-1H-pyrazol-4-yl)-1,6-naphthyridin-7-yl)-2-(piperidin-4-yl) oxazole-4-carboxamide] | 466 nM | – | – | 388 nM | – | 166 nM | 3720 nM | – | 67 nM | – | – | – | – | – | – | – | 1580 nM | – |
| Cn1cc(-c2ccc3cnc(NC(=O)[C@H]4CCCN4)nc3c2)cn1 [Compound 969, (R)—N-(7-(1-Methyl-1H-pyrazol-4-yl)quinazolin-2-yl)pyrrolidine-2-carboxamide] | > 10000 nM | 16.3% | – | > 10000 nM | 4.2% | > 10000 nM | > 10000 nM | 4.1% | > 10000 nM | – | – | – | – | – | – | – | > 10000 nM | 40.2% |
| Cc1ncc(-c2ccc3cnc(NC(=O)C4CCN(CC(C)(F)F)CC4)nc3c2)o1 [Compound 1471, 1-(2,2-Difluoropropyl)-N-(7-(2-methyloxazol-5-yl)quinazolin-2-yl)piperidine-4-carboxamide] | > 10000 nM | 11.3% | – | > 10000 nM | 17.8% | 578 nM | > 10000 nM | 1.8% | 46 nM | – | – | – | – | – | – | – | > 10000 nM | 43.6% |
| Cn1cc(-c2cnc3cnc(NC(=O)[C@H]4CCCN4)cc3c2)cn1 [Compound 2782, (R)—N-(3-(1-Methyl-1H-pyrazol-4-yl)-1,7-naphthyridin-6-yl)pyrrolidine-2-carboxamide] | > 10000 nM | 18.8% | – | > 10000 nM | 2.2% | 2450 nM | > 10000 nM | 4.3% | 867 nM | – | – | – | – | – | – | – | 2400 nM | – |
| Cn1cc(-c2cc3cc(NC(=O)C4CCN(CC5(C(F)(F)F)CC5)CC4)ncc3cn2)nn1 [Compound 3974, N-(6-(1-Methyl-1H-1,2,3-triazol-4-yl)-2,7-naphthyridin-3-yl)-1-((1-(trifluoromethyl)cyclopropyl)methyl)piperidine-4-carboxamide] | 4920 nM | – | – | 760 nM | – | 305 nM | > 10000 nM | 6.4% | 184 nM | – | – | – | – | – | – | – | 2020 nM | – |
| CNC(=O)c1ccc(C(=O)Nc2cc3nc(-c4cn(C)nn4)ccc3cn2)cn1 [Compound 372, N^2-Methyl-N^5-(2-(1-methyl-1H-1,2,3-triazol-4-yl)-1,6-naphthyridin-7-yl) pyridine-2,5-dicarboxamide] | > 10000 nM | 23.2% | – | > 10000 nM | 48.7% | 255 nM | > 10000 nM | 0% | 67 nM | – | – | – | – | – | – | – | 3640 nM | – |
| CC(C)Nc1cncc(-c2ccc3cnc(NC(=O)c4cn(C5CCNCC5)nn4)cc3n2)n1 [Compound 862, N-(2-(6-(isopropylamino)pyrazin-2-yl)-1,6-naphthyridin-7-yl)-1-(piperidin-4-yl)-1H-1,2,3-triazole-4-carboxamide] | 4380 nM | – | – | 3960 nM | – | > 10000 nM | > 10000 nM | 5.6% | 203 nM | – | – | – | – | – | – | – | 5030 nM | – |
